The values that follow come from patent publication US20230404914A1 (priority 2020, published 2023).

The conditions of data set [1]: averaged; cited from earlier work.
The nature of data set [2]: Clinical study: safety, compatibility, adverse events.
Data set [3] can be described thus: Clinical study: plasma concentrations after OTF administration. To be noted: for plasma level following OTF compared to intravenous administration of 20 mg (S)-ketamine / Cmax: human; for plasma level following OTF compared to intravenous administration of 20 mg (S)-ketamine: in vivo; for Cmax: plasma, Cmax plasma concentration.
The nature of data set [4]: Clinical study: pharmacokinetic model (NONMEM), Tmax, AUC, oral bioavailability.
Where [5] appears, read: human, plasma, other: sublingual or buccal, 50 mg.
Setting [6] is: human, plasma, other: sublingual or buccal, 100 mg.
The mark [7] stands for this setting: All data, 50 mg OTF based on formulation 15.
Setting [8] is: All data, 2 × 50 mg OTF based on formulation 15.
Where [9] appears, read: Buccally, 50 mg OTF based on formulation 15.
The mark [10] stands for this setting: Buccally, 2 × 50 mg OTF based on formulation 15.
Setting [11] is: Sublingually, 50 mg OTF based on formulation 15.
Where [12] appears, read: Sublingually, 2 × 50 mg OTF based on formulation 15.
Where [13] appears, read: 50 mg (S)-Ketamine OTF, calculated using PK model.
Setting [14] is: 100 mg (S)-Ketamine OTF, calculated using PK model.

In general, Cmax refers to the peak of the concentration-time curve. The term AUC(0-t) denotes exposure summed from dosing to a finite time, without extrapolation to infinity. A lower AUC(0-t) goes with low exposure. Turning to `CNC1(c2ccccc2Cl)CCCCC1=O` (racemic) [(S)-ketamine, (S)-(±)-2-(2-chlorophenyl)-2-(methylamino)cyclohexan-1-one], the lethal dose in data set [1] is 4.2 g/70 kg. In data set [2] (20 mg (S)-ketamine IV), the “Dizziness (prevalence of events)” value was determined as 4, the “Drowsiness (prevalence of events)” value is given as 3, the “Dry eyes (prevalence of events)” value is listed as 1 and the “Headache (prevalence of events)” value was 3. In addition, in data set [2] (20 mg (S)-ketamine IV), the “High blood pressure (SBP >180 mm Hg) (prevalence of events)” value is 2, the “Nausea (prevalence of events)” value is reported as 2, the “Sweating (prevalence of events)” value was determined as 1 and the “Total side effects (prevalence of events)” value (from here on “Total side effects”) is reported as 17. Further, the “Whistling noise in the ear (prevalence of events)” value in data set [2] (20 mg (S)-ketamine IV) is recorded as 1. Also, in data set [2] (50 mg (S)-ketamine OTF), the “Blurred vision (prevalence of events)” value came out at 1, the “Bradykinesia (prevalence of events)” value was 1, the “Dizziness (prevalence of events)” value stood at 1 and the “Feeling of drunkenness (prevalence of events)” value was found to be 2. For the same compound, in data set [2] (50 mg (S)-ketamine OTF), the “Headache (prevalence of events)” value is given as 1, the “Nausea (prevalence of events)” value was found to be 1 and the “Total side effects” value was determined as 7. Moreover, in data set [2] (100 mg (S)-ketamine OTF), the “Bradykinesia (prevalence of events)” value is reported as 1, the “Dizziness (prevalence of events)” value is on record as 3, the “Headache (prevalence of events)” value came out at 2 and the “Nausea (prevalence of events)” value is recorded as 1. Also, in data set [2] (100 mg (S)-ketamine OTF), the “Numbness of the tongue (prevalence of events)” value is given as 2 and the “Total side effects” value was 9. In data set [2] (whole study, OTF and IV), the “adverse events in total” value turned out to be 33, the serious adverse events entry is recorded as “None of these was a serious adverse event” and the “test subjects reporting at least one adverse event” value came to 18. Also, in data set [3], the “plasma level following OTF compared to intravenous administration of 20 mg (S)-ketamine” value is “higher for intravenous administration”. Besides, the peak level in data set [3] (50 mg, Buccally, 50 mg OTF based on formulation 15) (Cmax) was 117 ng/mL. Further, the Cmax in data set [3] (50 mg, Sublingually, 50 mg OTF based on formulation 15) was 95 ng/mL. In data set [3] (100 mg, Buccally, 2 × 50 mg OTF based on formulation 15), the Cmax is 158 ng/mL. The compound further showed a Cmax in data set [3] (100 mg, Sublingually, 2 × 50 mg OTF based on formulation 15) of 138 ng/mL. Besides, the peak level in data set [3] (other: sublingual or buccal (all data), 50 mg, All data, 50 mg OTF based on formulation 15) (Cmax) was 101 ng/mL. The maximum concentration (Cmax) in data set [3] (other: sublingual or buccal (all data), 100 mg, All data, 2 × 50 mg OTF based on formulation 15) came out at 143 ng/mL. In data set [4] (setting [5]), the AUC(0-t) is 139 ng·h/mL and the Tmax is 18.8 min. Moreover, in data set [4] (setting [6]), the AUC(0-t) is 222 ng·h/mL and the Tmax was 19.1 min.
For `N[C@]1(c2ccccc2Cl)CCC[C@H](O)C1=O` [(S)-Hydroxynorketamine], the Cmax plasma concentration in data set [3] (setting [7]) stood at 94 ng/mL; in data set [3] (setting [8]), 171 ng/mL; in data set [3] (setting [9]) it was 81 ng/mL; in data set [3] (setting [10]) it was 165 ng/mL; in data set [3] (setting [11]) it was 98 ng/mL; in data set [3] (setting [12]), 173 ng/mL. In data set [3], the “plasma level following OTF compared to intravenous administration of 20 mg (S)-ketamine” value is given as “higher following administration of an OTF”. Further, the figures for the Tmax in data set [4] (setting [13]) and in data set [4] (setting [14]) were 81 (69-92) min and 109 (89-130) min, respectively.
In the case of `N[C@]1(c2ccccc2Cl)CCCCC1=O` [(S)-Norketamine], the Cmax plasma concentration in data set [3] (setting [7]) was found to be 254 ng/mL; in data set [3] (setting [8]) it was 330 ng/mL; in data set [3] (setting [9]), 242 ng/mL; in data set [3] (setting [10]) it was 450 ng/mL; in data set [3] (setting [11]), 258 ng/mL; in data set [3] (setting [12]), 323 ng/mL. Further, the “plasma level following OTF compared to intravenous administration of 20 mg (S)-ketamine” value in data set [3] is “higher following administration of an OTF”. Moreover, the Tmax in data set [4] (setting [13]) was 61 (53-68) min; in data set [4] (setting [14]), 78 (66-91) min.
